# Results reported in ChEMBL document CHEMBL3244119, “Synthesis and hypoglycemic activity of S-acyl derivatives of 3-mercaptopicolinic acid” (J Med Chem, 1977).
# Assays:
# [1] = test system: Rattus norvegicus; assay: Hypoglycemic activity in 48 hrs fasted rat assessed as reduction in glucose level at 300 mg/kg, po measured after 2 hrs; assay type: functional; set-up: scale not given: the % may be the effect or the level left
# [2] = test system: Rattus norvegicus; assay: Hypoglycemic activity in 48 hrs fasted rat assessed as reduction in glucose level at 300 mg/kg, po measured after 4 hrs; assay type: functional; set-up: scale not given: the % may be the effect or the level left
# [3] = Stability of the compound assessed as rate of 3-mercaptopicolinic acid formation at 10 mg at pH 8 by DTNB method; assay type: physicochemical
# [4] = test system: Rattus norvegicus; assay: Hypoglycemic activity in 48 hrs fasted rat assessed as reduction in glucose level at 300 mg/kg, po measured after 1 hr; assay type: functional; set-up: scale not given: the % may be the effect or the level left
# [5] = Half life of the compound at pH 6; assay type: physicochemical
# [6] = Stability of the compound assessed as rate of 3-mercaptopicolinic acid formation at 10 mg at pH 6 by DTNB method; assay type: physicochemical
# [7] = Half life of the compound at pH 8; assay type: physicochemical
# [8] = test system: Rattus norvegicus; assay: Hypoglycemic activity in 48 hrs fasted rat assessed as reduction in glucose level at 125 mg/kg, po measured after 2 hrs; assay type: functional; set-up: scale not given: the % may be the effect or the level left
# [9] = test system: Rattus norvegicus; assay: Hypoglycemic activity in 48 hrs fasted rat assessed as reduction in glucose level at 125 mg/kg, po measured after 1 hr; assay type: functional; set-up: scale not given: the % may be the effect or the level left
# [10] = test system: Rattus norvegicus; assay: Hypoglycemic activity in 48 hrs fasted rat assessed as reduction in glucose level at 125 mg/kg, po measured after 4 hrs; assay type: functional; set-up: scale not given: the % may be the effect or the level left
# [11] = Stability of the compound assessed as compound remaining at equilibrium at 10 mg at pH 6 by DTNB method; assay type: physicochemical
# [12] = test system: Rattus norvegicus; assay: Hypoglycemic activity in 48 hrs fasted rat assessed as reduction in glucose level at 150 mg/kg, po measured after 1 hr; assay type: functional; set-up: scale not given: the % may be the effect or the level left
# [13] = test system: Rattus norvegicus; assay: Hypoglycemic activity in 48 hrs fasted rat assessed as reduction in glucose level at 150 mg/kg, po measured after 4 hrs; assay type: functional; set-up: scale not given: the % may be the effect or the level left
# [14] = test system: Rattus norvegicus; assay: Hypoglycemic activity in 48 hrs fasted rat assessed as reduction in glucose level at 150 mg/kg, po measured after 2 hrs; assay type: functional; set-up: scale not given: the % may be the effect or the level left
# [15] = test system: Rattus norvegicus; assay: Hypoglycemic activity in 48 hrs fasted rat assessed as reduction in glucose level at 250 mg/kg, po measured after 4 hrs; assay type: functional; set-up: scale not given: the % may be the effect or the level left
# [16] = test system: Rattus norvegicus; assay: Hypoglycemic activity in 48 hrs fasted rat assessed as reduction in glucose level at 250 mg/kg, po measured after 1 hr; assay type: functional; set-up: scale not given: the % may be the effect or the level left
# [17] = test system: Rattus norvegicus; assay: Hypoglycemic activity in 48 hrs fasted rat assessed as reduction in glucose level at 250 mg/kg, po measured after 2 hrs; assay type: functional; set-up: scale not given: the % may be the effect or the level left
# [18] = Stability of the compound in 3 N HCl-ethanol […] measured after refluxing for 2.5 hrs by TLC; assay type: physicochemical; settings: buffer
# [19] = Stability of the compound in 3 N HCl at room temperature after 3.5 hrs by TLC; assay type: physicochemical; settings: buffer
# [20] = test system: Rattus norvegicus; assay: Hypoglycemic activity in 48 hrs fasted rat assessed as reduction in glucose level at 200 mg/kg, po measured after 1 hr; assay type: functional; set-up: scale not given: the % may be the effect or the level left
# [21] = test system: Rattus norvegicus; assay: Hypoglycemic activity in 48 hrs fasted rat assessed as reduction in glucose level at 200 mg/kg, po measured after 2 hrs; assay type: functional; set-up: scale not given: the % may be the effect or the level left
# [22] = test system: Rattus norvegicus; assay: Hypoglycemic activity in 48 hrs fasted rat assessed as reduction in glucose level at 200 mg/kg, po measured after 4 hrs; assay type: functional; set-up: scale not given: the % may be the effect or the level left
SMILES,Activity [3],half-life [5],Activity [6],half-life [7],Activity [1],Activity [2],Activity [4],Activity [12],Activity [13],Activity [14],further results
O=C(Nc1ccc(C(=O)Sc2cccnc2C(=O)O)cc1)c1ccccc1,–,–,–,–,–,–,–,-20%,-4%,-20%,–
COC(=O)c1ccc(C(=O)Sc2cccnc2C(=O)O)cc1,–,–,–,–,–,–,–,-17%,1%,-20%,–
NC(=O)c1ccc(C(=O)Sc2cccnc2C(=O)O)cc1,–,–,–,–,–,–,–,-22%,-25%,-6%,–
CN(C)c1ccc(C(=O)Sc2cccnc2C(=O)O)cc1,–,–,–,–,–,–,–,-12%,-8%,-2%,–
CCC(=O)Sc1cccnc1C(=O)O,–,–,–,–,–,–,–,–,–,–,Activity [15]: 55%; Activity [16]: 22%; Activity [17]: 52%
O=C(O)c1ncccc1S,–,–,–,–,–,–,–,-32%,-56%,-44%,–
N#Cc1ccc(C(=O)Sc2cccnc2C(=O)O)cc1,–,–,–,–,–,–,–,-18%,0%,-16%,–
CCCCCCCCCCC(=O)Sc1cccnc1C(=O)O,–,–,–,–,–,–,–,-14%,-9%,3%,–
CC(=O)Nc1ccc(C(=O)Sc2cccnc2C(=O)O)cc1,–,–,–,–,–,–,–,-18%,7%,-14%,–
NS(=O)(=O)c1ccc(C(=O)Sc2cccnc2C(=O)O)cc1,–,–,–,–,–,–,–,20%,3%,-16%,–
CCCCNC(=O)NS(=O)(=O)c1ccc(C)cc1 [TOLBUTAMIDE],–,–,–,–,–,–,–,–,–,–,Activity [20]: 28%; Activity [21]: 47%; Activity [22]: 48%

# The next lines start with results.
Activity [3],half-life [5],Activity [6],half-life [7],SMILES,Activity [1],Activity [2],Activity [4],Activity [12],Activity [13],Activity [14],further results
0.179 h⁻¹,3.9 h,0.0695 h⁻¹,10 h,O=C(Sc1cccnc1C(=O)O)c1cccc(C(F)(F)F)c1,-38%,45%,-35%,–,–,–,–
0.0575 h⁻¹,12.1 h,0.0062 h⁻¹,111 h,O=C(Sc1cccnc1C(=O)O)c1ccc(F)cc1,-47%,-44%,-29%,–,–,–,–
0.0879 h⁻¹,7.9 h,0.0261 h⁻¹,26.6 h,O=C(Sc1cccnc1C(=O)O)c1ccc(Cl)cc1,-34%,-57%,-43%,–,–,–,Activity [8]: 34%; Activity [9]: 12%; Activity [10]: 40%
0.148 h⁻¹,4.7 h,0.0468 h⁻¹,14.8 h,O=C(Sc1cccnc1C(=O)O)c1cccc(Cl)c1,-32%,-42%,-27%,–,–,–,–
0.231 h⁻¹,3 h,0.0688 h⁻¹,10.1 h,O=C(Sc1cccnc1C(=O)O)c1ccc(C(F)(F)F)cc1,-54%,-75%,-26%,–,–,–,Activity [8]: 41%; Activity [9]: 28%; Activity [10]: 32%
0.513 h⁻¹,1.4 h,0.147 h⁻¹,4.7 h,O=C(Sc1cccnc1C(=O)O)c1ccc([N+](=O)[O-])cc1,0%,12%,0%,–,–,–,Stability [11]: 24.3 mol%
0.0583 h⁻¹,11.9 h,0.0109 h⁻¹,63.7 h,COc1cccc(C(=O)Sc2cccnc2C(=O)O)c1,-24%,-30%,-15%,–,–,–,–
0.0255 h⁻¹,27.2 h,0.0091 h⁻¹,75.8 h,O=C(Sc1cccnc1C(=O)O)c1ccccc1Cl,-39%,-40%,-35%,–,–,–,–
0.0158 h⁻¹,43.9 h,0.0038 h⁻¹,182 h,COc1ccc(C(=O)Sc2cccnc2C(=O)O)cc1,-25%,19%,16%,–,–,–,–
0.0271 h⁻¹,25.6 h,0.0087 h⁻¹,80.1 h,Cc1ccc(C(=O)Sc2cccnc2C(=O)O)cc1,-16%,-4%,-21%,–,–,–,–
0.0329 h⁻¹,21.1 h,0.0115 h⁻¹,60.1 h,O=C(Sc1cccnc1C(=O)O)c1ccccc1,-42%,-56%,-27%,–,–,–,Stability [18]: Stable; Stability [19]: Stable
0.0114 h⁻¹,61.1 h,0.006 h⁻¹,115 h,CC(C)(C)C(=O)Sc1cccnc1C(=O)O,-43%,-70%,-20%,–,–,–,Activity [8]: 42%; Activity [9]: 21%; Activity [10]: 52%
